Laboratory results from patent publication US20250228916A1, “A METHOD OF TREATING OR PREVENTING SEPSIS” (priority 2016, published 2025).

Tests used:
[1] = system: αVβ3 on human endothelial cells; experiment: Binding assay: L. lactis expressing ClfA binding to sheared human endothelial cells; assay type: cell-based; settings: pretreatment of the human endothelial cells with cilengitide; FIG. 6B
Procedure: (§1) Sheared HAoECs were seeded into wells of a 96 well tissue culture plate at a density of 2.5×10^4 cells per well in a volume of 100 μl. Experiments were carried out either in the presence or absence of TNFα at 10 ng/ml. The HAoECs were incubated at 37° C. 5% CO2 for 4 hours to facilitate attachment and cell-cell contact on the plate. Following the 4 hr incubation the media was removed and 100 μl of human platelet poor plasma (PPP), 4 mg/ml fibrinogen or 1 mg/ml IgG was added to each well and incubated for 1 hr at 37° C. 5% CO2. The wells were washed with PBS and the wells were blocked with 100 μl of 1% […] for 1 hr at 37° C. Finally the wells were washed with 100 μl of TBS and 100 μl of SYBR green II stained bacteria was added per well at a MOI of 400. The cells were incubated for a further 1 hr at 37° C. 5% CO2 and then read on a fluorescent plate reader (1420 Victor V3, Perkin Elmer, Dublin, Ireland) at 485/535 nm. The bacteria were then removed gently by pipette and the plate washed with 100 μl TBS/well. The plate was then read again at 485/535 nm. Adhered bacteria were calculated as a percent remaining from the initial reading multiplied by the number of bacteria added.

purified receptor a Vb3 = purified receptor a Vb3 (Homo sapiens, UniProt P05106+P06756); experiment: L. lactis ClfA binding to purified receptor αVβ3; settings: pretreating the purified receptor with cilengitide; FIG. 6C
purified receptor a Vb3, sequence (P06756 31-889 limits assumed): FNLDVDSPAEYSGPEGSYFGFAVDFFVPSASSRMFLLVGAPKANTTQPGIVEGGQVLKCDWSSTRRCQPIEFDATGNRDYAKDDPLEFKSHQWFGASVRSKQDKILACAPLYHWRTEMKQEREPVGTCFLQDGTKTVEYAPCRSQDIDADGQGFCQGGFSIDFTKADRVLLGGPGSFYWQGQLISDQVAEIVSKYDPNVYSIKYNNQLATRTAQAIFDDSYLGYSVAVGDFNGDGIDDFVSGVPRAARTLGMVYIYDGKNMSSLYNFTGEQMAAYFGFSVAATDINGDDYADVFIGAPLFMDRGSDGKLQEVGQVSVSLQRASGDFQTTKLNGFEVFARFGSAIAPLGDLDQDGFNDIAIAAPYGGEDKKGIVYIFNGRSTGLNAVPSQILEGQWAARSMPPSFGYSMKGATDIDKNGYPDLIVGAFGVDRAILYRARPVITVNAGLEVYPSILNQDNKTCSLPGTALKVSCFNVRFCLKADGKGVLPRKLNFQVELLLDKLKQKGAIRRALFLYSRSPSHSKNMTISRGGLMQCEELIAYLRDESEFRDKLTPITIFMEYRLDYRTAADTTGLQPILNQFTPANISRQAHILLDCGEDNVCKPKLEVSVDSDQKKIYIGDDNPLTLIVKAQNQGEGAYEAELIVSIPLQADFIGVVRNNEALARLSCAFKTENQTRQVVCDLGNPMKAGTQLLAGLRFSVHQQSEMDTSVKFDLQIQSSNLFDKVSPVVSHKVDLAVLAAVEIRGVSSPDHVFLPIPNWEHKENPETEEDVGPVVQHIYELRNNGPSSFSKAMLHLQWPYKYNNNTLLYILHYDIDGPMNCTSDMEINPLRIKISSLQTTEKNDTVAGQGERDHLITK
purified receptor a Vb3, sequence (P06756 891-1048 partner limits assumed): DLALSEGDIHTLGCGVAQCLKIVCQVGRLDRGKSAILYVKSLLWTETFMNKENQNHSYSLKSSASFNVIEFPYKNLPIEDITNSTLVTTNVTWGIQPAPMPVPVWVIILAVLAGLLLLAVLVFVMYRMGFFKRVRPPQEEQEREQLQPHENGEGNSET
purified receptor a Vb3, sequence (P05106 27-788): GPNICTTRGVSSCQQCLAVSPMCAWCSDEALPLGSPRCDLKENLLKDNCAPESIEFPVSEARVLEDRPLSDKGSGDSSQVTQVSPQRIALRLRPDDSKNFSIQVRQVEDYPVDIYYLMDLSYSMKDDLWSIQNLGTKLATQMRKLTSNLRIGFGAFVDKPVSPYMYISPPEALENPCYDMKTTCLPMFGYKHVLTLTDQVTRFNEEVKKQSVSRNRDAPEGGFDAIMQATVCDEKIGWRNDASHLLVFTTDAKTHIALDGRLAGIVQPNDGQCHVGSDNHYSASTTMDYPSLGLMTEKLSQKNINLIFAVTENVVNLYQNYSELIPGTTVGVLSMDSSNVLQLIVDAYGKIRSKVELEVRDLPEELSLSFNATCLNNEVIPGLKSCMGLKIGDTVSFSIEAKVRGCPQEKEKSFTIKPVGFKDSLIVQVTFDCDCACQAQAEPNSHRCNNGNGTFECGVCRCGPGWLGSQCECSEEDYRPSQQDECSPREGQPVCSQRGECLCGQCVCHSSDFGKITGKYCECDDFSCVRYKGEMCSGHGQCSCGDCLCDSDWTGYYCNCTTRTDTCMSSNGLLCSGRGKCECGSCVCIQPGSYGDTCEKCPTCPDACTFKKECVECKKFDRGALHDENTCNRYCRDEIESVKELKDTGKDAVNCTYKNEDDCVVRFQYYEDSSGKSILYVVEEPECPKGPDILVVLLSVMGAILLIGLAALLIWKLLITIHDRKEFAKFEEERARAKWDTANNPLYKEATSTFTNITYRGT

[2] = system: S. aureus adhesion to murine endothelial cells; experiment: In vivo venous mesenteric perfusion model of bacterial adhesion; settings: cilengitide administered intravenously; FIG. 7C, 7E
human endothelial cells [3] = experiment: Proliferation assay, S. aureus infected human endothelial cells; assay type: cell-based; settings: 0.05 μM cilengitide, 24 hrs; FIG. 8H
Procedure: Sheared HAoECs were seeded into a six well plate at 150,000 cells per well in 1.6 ml media containing 10 ng/ml of TNFα. The cells were incubated for 4 hrs at 37° C. in a 5% CO2. […] The media was removed and the well washed with antibiotic free media. To each well 1.6 ml of antibiotic free media was added containing S. aureus Newman or S. aureus ΔClfA for a MOI of 400. The cells were incubated at 37° C. in for 24 hrs. Following incubation the media was removed from the cells and they were washed 4 times with warm PBS. The cells were detached from the 6 well plate by trypsinization counted on a haemocytometer.

human endothelial cells [4] = experiment: Apoptosis assay (Annexin V), S. aureus infected human endothelial cells; assay type: cell-based; settings: cilengitide at 0.05 µM for 1 hr; FIG. 9B
Procedure: (§2) Sheared HAoECs in a 6 well plate were exposed to 1 ng of TNFα per 25,000 endothelial cells and were incubated for 4 hrs at 37° C. The TNFα containing media was removed and 1 ml of 4 mg/ml Fg in media at 37° C. for 1 hr. Media was removed and replaced with 1 ml of antibiotic free media containing S. aureus Newman WT or Newman ΔClfA to a MOI of 400 in a final volume per well of 2 ml. The cells were incubated for 24 hrs at 37° C. Following incubation the media was removed and the wells washed 3 times with warm PBS. Cells were detached by trypsinization and pelleted. The cell pellet was washed in ice cold (4° C.) PBS before being stained with a TACS™ Annexin V Apoptosis Kit. The cells were analysed on a flow cytometer (BD FACSCanto™ II Flow Cytometer). The experiment was repeated to test αVβ3 blocking by cilengitide at 0.05 µM for 1 hr between the TNFα exposure and the addition of 4 mg/ml fibrinogen for 1 hr. This experiment was repeated using E. coli and E. coli AompA instead of S. aureus Newman WT or Newman ΔClfA.

human endothelial cells [5] = experiment: Transwell permeability assay, S. aureus infected human endothelial cells; assay type: cell-based; settings: cilengitide at 0.05 μM for 1 hr; FIG. 10
Procedure: (§3) Endothelial barrier permeability was assessed using a transwell apparatus with the slight modifications. Sheared HAoECs were trypsinized and seeded into hanging inserts, were placed in a 6 well plate. To the lower (abluminal) chamber of the plate 4 ml of cell media was added and 2 ml of media containing 200,000 cells/ml was added to the top (luminal) chamber. The wells plates were incubated at 37° C. in a 5% CO2 and humidified atmosphere overnight to form a confluent monolayer. Media in the abluminal chamber was changed to antibiotic free media while simultaneously the media in the luminal chamber was removed and washed with antibiotic free media. Cells were infected with S. aureus Newman WT and S. aureus ΔClfA in 2 ml of antibiotic free media to infect the cells at a MOI of 400 for 3 hrs at 37° C. FITC dextran (40 kDa) was added to the top chamber for a final concentration of 250 μg/ml in 2 ml. Media samples from the abluminal chamber were taken 24 hrs after infection measured on a plate reader at fluorescence Ex/Em 485/535 nm. The experiment was repeated to test αVβ3 blocking by cilengitide at 0.05 μM for 1 hr between the TNFα exposure and the addition of 4 mg/ml fibrinogen in place of plasma for 1 hr. This experiment was repeated using E. coli and E. coli AompA instead of S. aureus Newman WT or Newman ΔClfA.

human endothelial cells [6] = experiment: MTT cytotoxicity assay; assay type: cell-based; settings: 0.05 μM cilengitide, FIG. 12
Procedure: Cell metabolic activity was measured using a MTT ((3-(4,5-dimethylthiazol-2-yl)-2,5-diphenyltetrazolium bromide) assay kit. Sheared HAoECs were seeded into a clear 96 well microtitre plate at a density of 2.5×10^4 cells/well in 100 μl in media containing 10 ng/ml TNFα. The cells were incubated for 4 hrs at 37° C. Media was removed from the wells after 4 hrs and replaced with 100 μl of fresh cell media, cell media containing a vehicle or cell media containing 0.05 μM cilengitide. The plate was incubated for a further one hour before the media was changed for 100 μl of fresh cell media with 10 μl of 12 mM MTT stock and the plate 10 incubated at 37° C. for 4 hrs. All but 25 μl of liquid was removed from each well and 10 μl of DMSO was added per well. The plate was incubated for 10 minutes at 37° C. before being read on a plate reader for absorbance at 570 nm.

[7] = system: αVβ3 integrin on endothelial cells; experiment: E. coli binding to endothelial cells, static assay; assay type: cell-based, human; settings: cilengitide 0.05 μM; FIG. 14A
Procedure: as §1

[8] = system: αVβ3 integrin on sheared endothelial cells; experiment: E. coli binding to sheared endothelial cells under perfusion; assay type: cell-based, human; settings: cilengitide 0.05 μM; E. coli perfused at 10 dyns for 5 minutes; FIG. 14B
endothelial cells [9] = experiment: Transwell permeability assay, E. coli infected endothelial cells; assay type: cell-based, human; settings: preincubating the endothelial cells with cilengitide; FIG. 16
Procedure: as §3

endothelial cells [10] = experiment: VE-cadherin immunostaining of tight junction formation after E. coli infection; assay type: cell-based, human; settings: pre-treating the endothelial cells with cilengitide; FIG. 17E
endothelial cells [11] = experiment: Apoptosis assay (Annexin V flow cytometry), E. coli infected endothelial cells
Procedure: as §2

[12] = system: vascular endothelial αVβ3 integrin receptor; experiment: Adhesion of gram positive and gram negative bacteria to vascular endothelial cells; assay type: cell-based, human; settings: blocking the αVβ3 receptor
Procedure: as §1

[13] = target: vascular endothelial αVβ3 integrin on sheared human aortic endothelial cells (human)

Row | Compound | binding of L. lactis expressing ClfA to human endothelial cells [1] | L. lactis ClfA binding to purified receptor αVβ3 (purified receptor a Vb3) | S. aureus binding to murine endothelial cells [2] | human endothelial cell proliferation after S. aureus infection (human endothelial cells [3]) | S. aureus induced apoptosis of human endothelial cells (human endothelial cells [4]) | permeability of the human endothelial barrier following S. aureus infection (human endothelial cells [5]) | toxicity in human endothelial cells (human endothelial cells [6]) | E. coli binding to endothelial cells, static assay [7] | E. coli binding to sheared endothelial cells, perfused [8] | E. coli induced permeability of endothelial cells (endothelial cells [9]) | VE-cadherin tight junction formation following E. coli infection (endothelial cells [10]) | viability of endothelial cells (endothelial cells [11]; cilengitide alone, no infection) | E. coli induced apoptosis of endothelial cells (endothelial cells [11]; preincubation of endothelial cells with cilengitide, Annexin V, FIG. 17F) | adhesion of both gram positive and gram negative bacteria to vascular endothelial cells [12] | endothelial cell permeability (% increase in permeability) [13]
1 | CC(C)[C@H]1C(=O)N[C@@H](CCCN=C(N)N)C(=O)NCC(=O)N[C@@H](CC(=O)O)C(=O)N[C@H](Cc2ccccc2)C(=O)N1C [cilengitide, cyclo(-RGDf(NMe)V-)] | significantly reduced | significantly inhibited | failed to significantly bind | significantly recovered | significantly reduced | significantly reduced | does not cause toxicity | significantly inhibited | significantly inhibited | significantly reduces permeability | recovery of tight junction formation | failed to affect | significant reduction | dose-dependent reduction in adhesion | –
2 | Escherichia coli outer membrane protein A | – | – | – | – | – | – | – | – | – | – | – | – | – | – | 30
